From patent US10669235B2, “Indole derivatives and their use as protein kinase inhibitors” (RESPIVERT LIMITED, priority 2016, dated 2020)
Counter-ions that a name gives are not always drawn.

What was measured:
MRC5 cells = assay: Cell viability assay in MRC5 cells (MTT)
PDGFRβ [1] = molecular target: T1, PDGFRβ (Homo sapiens (Human), UniProt P09619); assay: PDGF-BB induced phosphorylation of PDGFRβ in fibroblasts (MRC5, HTRF); type: cell-based; details: MRC5 cells, PDGFBB stimulation; read-out: PDGFBB-induced PDGFRβ phosphorylation in MRC5 cells (IC50)
T1 sequence (P09619 33-1106): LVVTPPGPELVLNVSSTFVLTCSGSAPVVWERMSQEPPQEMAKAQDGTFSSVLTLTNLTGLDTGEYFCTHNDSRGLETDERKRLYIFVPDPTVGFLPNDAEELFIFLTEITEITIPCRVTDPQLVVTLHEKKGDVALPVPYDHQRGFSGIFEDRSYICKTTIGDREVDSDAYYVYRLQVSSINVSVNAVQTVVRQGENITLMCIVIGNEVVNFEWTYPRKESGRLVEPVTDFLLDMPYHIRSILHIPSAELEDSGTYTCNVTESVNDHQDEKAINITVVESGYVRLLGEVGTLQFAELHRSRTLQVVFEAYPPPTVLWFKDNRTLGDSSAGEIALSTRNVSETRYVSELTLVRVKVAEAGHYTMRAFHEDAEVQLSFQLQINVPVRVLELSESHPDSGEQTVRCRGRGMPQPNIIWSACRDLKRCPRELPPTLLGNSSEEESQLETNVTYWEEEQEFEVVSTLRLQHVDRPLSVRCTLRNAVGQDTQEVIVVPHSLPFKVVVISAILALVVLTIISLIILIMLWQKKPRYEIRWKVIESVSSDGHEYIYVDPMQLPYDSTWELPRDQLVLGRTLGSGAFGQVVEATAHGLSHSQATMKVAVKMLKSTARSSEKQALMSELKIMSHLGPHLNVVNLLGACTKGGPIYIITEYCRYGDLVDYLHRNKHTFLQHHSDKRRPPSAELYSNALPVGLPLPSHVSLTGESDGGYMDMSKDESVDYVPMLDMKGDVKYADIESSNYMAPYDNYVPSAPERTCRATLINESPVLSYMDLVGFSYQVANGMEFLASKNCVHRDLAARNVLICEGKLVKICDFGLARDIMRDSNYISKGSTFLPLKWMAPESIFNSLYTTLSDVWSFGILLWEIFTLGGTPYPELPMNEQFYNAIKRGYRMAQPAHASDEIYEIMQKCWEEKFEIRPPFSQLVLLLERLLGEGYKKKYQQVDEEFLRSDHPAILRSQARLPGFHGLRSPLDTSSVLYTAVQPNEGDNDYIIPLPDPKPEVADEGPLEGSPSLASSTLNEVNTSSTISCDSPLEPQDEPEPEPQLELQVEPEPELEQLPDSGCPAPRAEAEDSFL

PAMPA permeability assay = type: in vitro ADME; details: pH 7, PAMPA; for Papp at 5 h, 10 µM: pH 7, 10 μM
PDGFRβ [2] = molecular target: T1, PDGFRβ; assay: PDGFRβ enzyme inhibition (ADP-Glo assay); type: biochemical; details: mean, n = 2 (nintedanib n = 34)

SMILES	Cell viability at 100 nM (%) (MRC5 cells)	Cell viability at 300 nM (%) (MRC5 cells)	Cell viability at 1000 nM (%) (MRC5 cells)	IC50 (PDGFRβ [1]) [nM]	recovery at 5 hr, 10 μM (PAMPA permeability assay) [%]	Papp at 5 h, 10 µM (PAMPA permeability assay) [×10⁻⁶ cm/s]	Ki (PDGFRβ [2]) [nM]
COC(=O)c1cc2c(cc1C)/C(=C(/Nc1ccc(C(=O)N(CCO)CCN(C)C)cc1)c1ccccc1)C(=O)N2 [Example 32, (Z)-Methyl 3-(((4-((2-(dimethylamino)ethyl)(2-hydroxyethyl)carbamoyl)phenyl)amino)(phenyl)methylene)-5-methyl-2-oxoindoline-6-carboxylate, 0.3 formate]	99.3	129.3	49.4	4.53	59.6	0.0217	5.02
COC(=O)c1cc2c(cc1C)/C(=C(/Nc1ccc(C(=O)N3CC[C@@H](CN(C)C)[C@H](O)C3)cc1)c1ccccc1)C(=O)N2 [Example 33, (Z)-Methyl 3-(((4-((3S,4S)-4-((dimethylamino)methyl)-3-hydroxypiperidine-1-carbonyl)phenyl)amino)(phenyl)methylene)-5-methyl-2-oxoindoline-6-carboxylate]	86.6	63.1	19.8	2.32	69.1	0.0269	6.82
COC(=O)c1cc2c(cc1C)/C(=C(/Nc1ccc(C(=O)NCCN3CCCN(C(C)=O)CC3)cc1)c1ccccc1)C(=O)N2 [Example 34, (Z)-Methyl 3-(((4-((2-(4-acetyl-1,4-diazepan-1-yl)ethyl)carbamoyl)phenyl)amino)(phenyl)methylene)-5-methyl-2-oxoindoline-6-carboxylate]	82.9	74.4	16.2	4.71	41.1	0.00748	14.4
COCCN(C)CCNC(=O)c1ccc(N/C(=C2\C(=O)Nc3cc(C(=O)OC)c(C)cc32)c2ccccc2)cc1 [Example 35, (Z)-Methyl 3-(((4-((2-((2-methoxyethyl)(methyl)amino)ethyl)carbamoyl)phenyl)amino)(phenyl)methylene)-5-methyl-2-oxoindoline-6-carboxylate, 0.5 formate]	99.8	122.5	99.1	17.3	79.2	10.7	17
COC(=O)c1cc2c(cc1C)/C(=C(/Nc1ccc(C(=O)NCC3(N(C)C)CCOCC3)cc1)c1ccccc1)C(=O)N2 [Example 36, (Z)-Methyl 3-(((4-(((4-(dimethylamino)tetrahydro-2H-pyran-4-yl)methyl)carbamoyl)phenyl)amino)(phenyl)methylene)-5-methyl-2-oxoindoline-6-carboxylate]	87.3	77.2	69.6	9.96	77.4	8.96	15.9
COC(=O)c1cc2c(cc1C)/C(=C(/Nc1ccc(C(=O)N3CCC(O)(CN4CCCC4)CC3)cc1)c1ccccc1)C(=O)N2 [Example 37, (Z)-Methyl-3-(((4-(4-hydroxy-4-(pyrrolidin-1-ylmethyl)piperidine-1-carbonyl)phenyl)amino)(phenyl)methylene)-5-methyl-2-oxoindoline-6-carboxylate, formate]	93.6	83.4	18.4	5.28	68.2	0.0542	7.54
COC(=O)c1cc2c(cc1C)/C(=C(/Nc1ccc(C(=O)N3CCC(CO)(CN(C)C)CC3)cc1)c1ccccc1)C(=O)N2 [Example 38, (Z)-Methyl-3-(((4-(4-((dimethylamino)methyl)-4-(hydroxymethyl)piperidine-1-carbonyl)phenyl)amino)(phenyl)methylene)-5-methyl-2-oxoindoline-6-carboxylate]	70.7	63	4.2	1.7	70.3	0.0269	4.79
COCCNC(=O)CN1CCN(C(=O)c2ccc(N/C(=C3\C(=O)Nc4cc(C(=O)OC)c(C)cc43)c3ccccc3)cc2)CC1 [Example 39, (Z)-Methyl-3-(((4-(4-(2-((2-methoxyethyl)amino)-2-oxoethyl)piperazine-1-carbonyl)phenyl)amino)(phenyl)methylene)-5-methyl-2-oxoindoline-6-carboxylate]	96.2	73.3	36.7	5.95	85.7	0.633	14.1
COC(=O)c1cc2c(cc1C)/C(=C(/Nc1ccc(C(=O)NCC3(N(C)C)CCC3)cc1)c1ccccc1)C(=O)N2 [Example 40, (Z)-Methyl 3-(((4-(((1-(dimethylamino)cyclobutyl)methyl)carbamoyl)phenyl)amino)(phenyl)methylene)-5-methyl-2-oxoindoline-6-carboxylate, 0.3 formate]	95.4	88	82.9	13.4	56	26.5	12.8
COC(=O)c1cc2c(cc1C)/C(=C(/Nc1ccc(C(=O)N3CCC4(CC3)C(=O)NCCCN4C)cc1)c1ccccc1)C(=O)N2 [Example 43, (Z)-Methyl-5-methyl-3-(((4-(7-methyl-12-oxo-3,7,11-triazaspiro[5.6]dodecane-3-carbonyl)phenyl)amino)(phenyl)methylene)-2-oxoindoline-6-carboxylate]		58.8	6.4	2.31		0.865	25.2
COC(=O)c1cc2c(cc1C)/C(=C(/Nc1ccc(C(=O)NCCN3CCN(S(C)(=O)=O)CC3)cc1)c1ccccc1)C(=O)N2 [Example 44, (Z)-Methyl-5-methyl-3-(((4-((2-(4-(methylsulfonyl)piperazin-1-yl)ethyl)carbamoyl)phenyl)amino)(phenyl)methylene)-2-oxoindoline-6-carboxylate]	98.4	78.4	60.4	3.33	71.7	0.00879	17.8
COC(=O)c1cc2c(cc1C)/C(=C(/Nc1ccc(C(=O)N3CCC(O)(CN4CCOCC4)CC3)cc1)c1ccccc1)C(=O)N2 [Example 45, (Z)-Methyl-3-(((4-(4-hydroxy-4-(morpholinomethyl)piperidine-1-carbonyl)phenyl)amino)(phenyl)methylene)-5-methyl-2-oxoindoline-6-carboxylate]	80.1	71.7	62.8	2.42	77	0.0893	15.1
